# Data: ChEMBL document CHEMBL2203039, “Azabenzthiazole inhibitors of leukotriene A₄ hydrolase” (Bioorg Med Chem Lett, 2012)
# Biological target: Voltage-gated inwardly rectifying potassium channel KCNH2 (Homo sapiens, UniProt Q12809)
# Experiment: Inhibition of dofetilide binding to human ERG by radioligand binding assay
# Sequence of Voltage-gated inwardly rectifying potassium channel KCNH2 (Q12809 whole entry): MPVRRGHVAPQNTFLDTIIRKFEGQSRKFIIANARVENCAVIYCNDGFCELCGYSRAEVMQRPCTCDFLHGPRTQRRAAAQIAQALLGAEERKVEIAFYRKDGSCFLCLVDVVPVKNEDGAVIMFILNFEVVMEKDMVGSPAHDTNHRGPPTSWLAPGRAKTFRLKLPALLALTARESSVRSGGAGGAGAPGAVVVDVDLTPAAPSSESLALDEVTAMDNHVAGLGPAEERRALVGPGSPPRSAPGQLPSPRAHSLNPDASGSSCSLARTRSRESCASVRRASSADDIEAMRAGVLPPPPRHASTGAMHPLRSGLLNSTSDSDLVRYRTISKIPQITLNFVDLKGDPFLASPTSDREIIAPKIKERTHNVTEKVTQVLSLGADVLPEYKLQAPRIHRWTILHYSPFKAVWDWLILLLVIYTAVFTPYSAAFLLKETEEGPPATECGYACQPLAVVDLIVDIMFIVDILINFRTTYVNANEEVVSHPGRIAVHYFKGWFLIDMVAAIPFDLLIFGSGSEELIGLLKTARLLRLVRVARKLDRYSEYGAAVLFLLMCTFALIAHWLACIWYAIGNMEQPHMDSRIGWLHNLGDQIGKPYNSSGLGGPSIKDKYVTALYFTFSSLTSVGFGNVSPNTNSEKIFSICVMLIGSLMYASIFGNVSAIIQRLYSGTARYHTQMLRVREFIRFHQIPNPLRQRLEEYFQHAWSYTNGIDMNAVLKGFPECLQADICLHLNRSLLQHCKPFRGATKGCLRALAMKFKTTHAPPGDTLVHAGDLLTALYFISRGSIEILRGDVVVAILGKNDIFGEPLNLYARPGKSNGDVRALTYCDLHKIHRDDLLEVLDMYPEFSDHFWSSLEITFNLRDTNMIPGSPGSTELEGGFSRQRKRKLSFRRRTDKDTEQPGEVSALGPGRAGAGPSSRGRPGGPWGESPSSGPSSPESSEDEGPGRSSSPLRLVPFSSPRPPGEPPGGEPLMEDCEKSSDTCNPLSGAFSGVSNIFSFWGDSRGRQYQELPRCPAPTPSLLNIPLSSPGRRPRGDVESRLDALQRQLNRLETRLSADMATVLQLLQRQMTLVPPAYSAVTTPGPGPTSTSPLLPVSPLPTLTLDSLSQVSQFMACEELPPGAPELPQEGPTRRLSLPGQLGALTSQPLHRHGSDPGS
smiles,measurement,value
O=C1CCCN1C1CCN(CCc2ccc(Oc3nc4ncccc4s3)cc2)CC1,IC50,> 10 µM
